In patent US4594241A, “Anti-leishmanial pharmaceutical formulations” (Burroughs Wellcome Co., priority 1982, dated 1986):

How the values were obtained:
Leishmania donovani [1] = assay: Animal test: Balb/c mice infected with Leishmania donovani, intravenous treatment once daily for 5 days, liver parasite count; type: in vivo, Leishmania donovani in Balb/c mice; conditions: for ED50 (P95 limits): i.v. daily for 5 days, 10080 min
Source text: (§1) Inbred male mice, strain Balb/c (Bantin & Kingman), were infected with Leishmania donovani by intravenous inoculation of 10^7 amastigotes from the spleen of an infected hamster. One week after inoculation, the mice were divided into groups of 9-10 animals and dosed intravenously into the tail vein with sodium stibogluconate, either as free drug or entrapped in liposomes similar to those described in Example 1. The dose was given once daily for 5 days. Empty liposomes were inoculated into one group as controls. Seven days after the first dose of drug, the mice were killed, the livers excised and weighed, and impression smears prepared from a cut surface of the liver. The impression smears were stained with Giemsa, and number of amastigotes counted microscopically per 500 liver cell nuclei, and the total number of parasites calculated by the method of Stauber et al. J. Protozoology, 5, 269, (1958).
(§2) The doses of sodium stibogluconate were calculated in terms of mg antimony/kg for both free and entrapped drug. The liposome dilutions were freshly prepared for each day of drug treatment.
The results of treatment are expressed as the mean of the total numbers of amastigotes in the liver of each mouse.

Leishmania donovani [2] = assay: Animal test: mice infected with Leishmania donovani, single intravenous injection (Experiment No. 82), liver parasite count; type: in vivo, Leishmania donovani in Balb/c mice
Source text: as §1, with “The dose was given once daily for 5 days.” left out
as §2
The results of treatment are expressed as the mean of the total numbers of amastigotes in the liver of each mouse. The following results were obtained:
Further animal tests on mice, as described in Example 2, were carried out using a liposomal formulation corresponding to that described as Preparation No. 8 in Example 2. […]

[3] = expt. 44, 15 mg Sb/kg × 5, i.v.
[4] = expt. 56, 0.5 mg Sb/kg × 5, i.v.
[5] = expt. 56, 1.0 mg Sb/kg × 5, i.v.
[6] = expt. 56, 2.0 mg Sb/kg × 5, i.v.
[7] = expt. 56, 4.0 mg Sb/kg × 5, i.v.

In the case of sodium stibogluconate, the “Potency relates to free drug (P95 limits)” value (Leishmania donovani [1]; Expt. 44) is reported as 1, the “ED50 (P95 limits)” value (Leishmania donovani [1]; Expt. 44) is reported as 2.4 (3.2-1.8) mg Sb/kg × 5 and the “Potency relates to free drug (P95 limits)” value (Leishmania donovani [1]; Expt. 56) is reported as 1. The “ED50 (P95 limits)” value (Leishmania donovani [1]; Expt. 56) was 1.14 (1.35-0.95) mg Sb/kg × 5, the “% inhibition” value (Leishmania donovani [1]; expt. 44, 5 mg Sb/kg × 5, i.v.) was 72% and the “Mean no. of parasites/mouse liver ± SE” value (Leishmania donovani [1]; expt. 44, 5 mg Sb/kg × 5, i.v.) was 1.54 ± 0.21 × 10^8. For the same substance, the “% inhibition” value (Leishmania donovani [1]; [3]) was 93%, the “Mean no. of parasites/mouse liver ± SE” value (Leishmania donovani [1]; [3]) was 0.38 ± 0.08 × 10^8 and the “% inhibition” value (Leishmania donovani [1]; [4]) was 23%. For the same substance, the “Mean no. of parasites/mouse liver ± SE” value (Leishmania donovani [1]; [4]) was 3.80 ± 0.37 × 10^8, the “% inhibition” value (Leishmania donovani [1]; [5]) was 26% and the “Mean no. of parasites/mouse liver ± SE” value (Leishmania donovani [1]; [5]) was 3.65 ± 0.29 × 10^8. For the same substance, the “% inhibition” value (Leishmania donovani [1]; [6]) was 69%, the “Mean no. of parasites/mouse liver ± SE” value (Leishmania donovani [1]; [6]) was 1.55 ± 0.36 × 10^8 and the “% inhibition” value (Leishmania donovani [1]; [7]) was 93%. The “Mean no. of parasites/mouse liver ± SE” value (Leishmania donovani [1]; [7]) was 0.35 ± 0.11 × 10^8 and the “ED50 (dosage rate necessary to reduce the parasite count to 50% of the untreated group)” value (Leishmania donovani [2]) was 61.2 mg antimony per kilogram body weight.
